Patent US20230122249A1, “1H-PYRAZOLO[4,3-d]PYRIMIDINE COMPOUNDS AS TOLL-LIKE RECEPTOR 7 (TLR7) AGONISTS” (BRISTOL-MYERS SQUIBB COMPANY, priority 2020, published 2023)

molecular target: T1, human TLR7 (Homo sapiens, UniProt Q9NYK1); experiment: Human TLR7 agonist activity (hTLR7 reporter) assay in HEK-Blue TLR7 cells, SEAP readout; format: cell-based; conditions: 18 h treatment, average where assay repeated
T1 construct: host or cells: HEK-Blue TLR7 cells (engineered human embryonic kidney cells)
T1 sequence (Q9NYK1 27-1049): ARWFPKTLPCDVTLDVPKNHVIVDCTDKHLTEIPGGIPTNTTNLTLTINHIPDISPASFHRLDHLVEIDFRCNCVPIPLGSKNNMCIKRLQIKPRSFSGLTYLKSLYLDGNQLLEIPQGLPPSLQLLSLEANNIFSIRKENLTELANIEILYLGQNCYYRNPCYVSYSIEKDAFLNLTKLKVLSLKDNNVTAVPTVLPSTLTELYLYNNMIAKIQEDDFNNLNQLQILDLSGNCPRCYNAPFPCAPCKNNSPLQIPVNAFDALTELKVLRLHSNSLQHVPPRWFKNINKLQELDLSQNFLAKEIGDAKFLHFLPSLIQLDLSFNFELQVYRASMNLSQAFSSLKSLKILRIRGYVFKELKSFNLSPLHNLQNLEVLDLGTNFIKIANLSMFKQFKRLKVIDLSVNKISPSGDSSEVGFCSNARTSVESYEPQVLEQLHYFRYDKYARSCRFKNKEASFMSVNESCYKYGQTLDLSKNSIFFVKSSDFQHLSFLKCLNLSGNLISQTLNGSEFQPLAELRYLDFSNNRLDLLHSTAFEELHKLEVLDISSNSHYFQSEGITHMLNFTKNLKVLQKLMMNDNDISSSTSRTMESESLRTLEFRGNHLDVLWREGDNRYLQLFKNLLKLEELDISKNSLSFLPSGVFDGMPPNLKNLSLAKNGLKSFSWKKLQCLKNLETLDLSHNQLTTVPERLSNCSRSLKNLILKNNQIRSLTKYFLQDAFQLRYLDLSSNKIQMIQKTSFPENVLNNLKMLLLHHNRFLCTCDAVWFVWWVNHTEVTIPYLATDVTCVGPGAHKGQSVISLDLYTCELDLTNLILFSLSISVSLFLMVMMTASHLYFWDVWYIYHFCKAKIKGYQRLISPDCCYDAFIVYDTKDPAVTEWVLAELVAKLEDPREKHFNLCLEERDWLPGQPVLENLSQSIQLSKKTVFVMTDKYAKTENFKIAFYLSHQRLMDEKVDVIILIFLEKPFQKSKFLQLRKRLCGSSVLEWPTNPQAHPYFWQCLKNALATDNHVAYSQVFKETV
Method in brief: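 HEK-Blue TLR7 cells (15,000/well) treated with compound for 18 h at 37 °C, 5% CO2. Secreted SEAP measured with Quanti-Blue, 30 min, OD 620 nm. EC50 taken as concentration giving half-maximal response between baseline and maximum.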

SMILES	EC50 [nM]
CCC[C@@H](CCO)Nc1nc(N)nc2c(C)nn(Cc3ccc(CN4CC5(CNC5)C4)cc3OC)c12 [Compound 246]	180
COc1cc(C(=O)N2CC3(CN(C)C3)C2)ccc1Cn1ncc2nc(N)nc(NCc3noc(C)n3)c21 [Compound 247]	197
COc1cc(C(=O)N2CC3(C2)CN(C(C)C)C3)ccc1Cn1ncc2nc(N)nc(NCc3noc(C)n3)c21 [Compound 248]	73
CCC[C@@H](CCO)Nc1nc(N)nc2cnn(Cc3ccc(CN4CC5(CN(CC)C5)C4)cc3OC)c12 [Compound 249]	55.6
CCC[C@@H](CCO)Nc1nc(N)nc2cnn(Cc3ncc(C4CC5(C4)CN(C4CCOCC4)C5)cc3OC)c12 [Compound 250]	45.3
CCC[C@@H](CCO)Nc1nc(N)nc2cnn(Cc3ncc(C4CC5(C4)CN(C(C)C)C5)cc3OC)c12 [Compound 251]	134
CCC[C@@H](CCO)Nc1nc(N)nc2cnn(Cc3ccc(CN4CC5(C4)CN(CC4CCC4)C5)cc3OC)c12 [Compound 252]	6.1
CCC[C@@H](CCO)Nc1nc(N)nc2cnn(Cc3ccc(CN4CC5(C4)CN(CC4CC4)C5)cc3OC)c12 [Compound 253]	14.5
COc1cc(CN2CC3(C2)CS(=O)(=O)C3)ccc1Cn1ncc2nc(N)nc(NCc3noc(C)n3)c21 [Compound 254]	244
CCCCNc1nc(N)nc2cnn(Cc3ccc(CN4CCC5(CC4)CNC5)cc3OC)c12 [Compound 255]	175
CCCCNc1nc(N)nc2cnn(Cc3ccc(CN4CC5(CCNCC5)C4)cc3OC)c12 [Compound 256]	267
CCCCNc1nc(N)nc2cnn(Cc3ccc(CN4CC5(CCNC5)C4)cc3OC)c12 [Compound 257]	198
CCCCNc1nc(N)nc2cnn(Cc3ccc(CN4CCC5(CNC5)C4)cc3OC)c12 [Compound 258]	147
CCCCNc1nc(N)nc2cnn(Cc3ccc(CN4CCC5(CC4)CN(CCO)C5)cc3OC)c12 [Compound 259]	62.5
CCCCNc1nc(N)nc2cnn(Cc3ccc(CN4CC5(CCN(CCO)C5)C4)cc3OC)c12 [Compound 261]	120
CCCCNc1nc(N)nc2cnn(Cc3ccc(CN4CCC5(C4)CN(CCO)C5)cc3OC)c12 [Compound 262]	64.5
COc1cc(CN2CC3(C2)CN(C(C)C)C3)ccc1Cn1ncc2nc(N)nc(NCc3noc(C)n3)c21 [Compound 263]	68.7
COc1cc(CN2CC3(C2)CN(C(C)=O)C3)ccc1Cn1ncc2nc(N)nc(NCc3noc(C)n3)c21 [Compound 264]	916
CCCCNc1nc(N)nc2cnn(Cc3ccc(CN4CCC5(CCNC5)C4)cc3OC)c12 (stereo not drawn) [Compound 265]	177
CCCCNc1nc(N)nc2cnn(Cc3ccc(CN4CCC5(CCNCC5)CC4)cc3OC)c12 [Compound 266]	141
CCCCNc1nc(N)nc2cnn(Cc3ccc(CN4CCC5(CCN(CCO)C5)C4)cc3OC)c12 (stereo not drawn) [Compound 267]	58.5
CCC[C@@H](CCO)Nc1nc(N)nc2c(C)nn(Cc3ccc(CNC4CC5(C4)CN(C)C5)cc3OC)c12 [Compound 269]	69.9
CCC[C@@H](CCO)Nc1nc(N)nc2cnn(Cc3ncc(C4CC5(CCN(C6CCOCC6)CC5)C4)cc3OC)c12 [Compound 270]	11.5
CCC[C@@H](CCO)Nc1nc(N)nc2cnn(Cc3ncc(C4CCC5(CC4)CN(C4CCOCC4)C5)cc3OC)c12 [Compound 271]	13.3

test system: CD69 in human whole blood; experiment: Induction of CD69 in human whole blood (hWB); format: cell-based; conditions: heparinized human whole blood, 17 h, CD69 surface staining; 100% set to 1 uM resiquimod; average where assay repeated
Method in brief: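 hWB stimulated with compound at 1 uM final (1 mM stock), 37° C o/n (17 hrs). Surface CD69-PE staining with CD14/CD19 gating, fix/lysis, then flow cytometry read. IC50 curves with 100% set to 1 uM resiquimod.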

SMILES	EC50 [nM]
CCC[C@@H](CCO)Nc1nc(N)nc2c(C)nn(Cc3ccc(CN4CC5(CNC5)C4)cc3OC)c12 [Compound 246]	11.1
COc1cc(C(=O)N2CC3(CN(C)C3)C2)ccc1Cn1ncc2nc(N)nc(NCc3noc(C)n3)c21 [Compound 247]	37.1
COc1cc(C(=O)N2CC3(C2)CN(C(C)C)C3)ccc1Cn1ncc2nc(N)nc(NCc3noc(C)n3)c21 [Compound 248]	25.4
CCC[C@@H](CCO)Nc1nc(N)nc2cnn(Cc3ccc(CN4CC5(CN(CC)C5)C4)cc3OC)c12 [Compound 249]	1.6
CCC[C@@H](CCO)Nc1nc(N)nc2cnn(Cc3ncc(C4CC5(C4)CN(C4CCOCC4)C5)cc3OC)c12 [Compound 250]	1.1
CCC[C@@H](CCO)Nc1nc(N)nc2cnn(Cc3ncc(C4CC5(C4)CN(C(C)C)C5)cc3OC)c12 [Compound 251]	1.8
CCC[C@@H](CCO)Nc1nc(N)nc2cnn(Cc3ccc(CN4CC5(C4)CN(CC4CCC4)C5)cc3OC)c12 [Compound 252]	0.4
CCC[C@@H](CCO)Nc1nc(N)nc2cnn(Cc3ccc(CN4CC5(C4)CN(CC4CC4)C5)cc3OC)c12 [Compound 253]	1.3
COc1cc(CN2CC3(C2)CS(=O)(=O)C3)ccc1Cn1ncc2nc(N)nc(NCc3noc(C)n3)c21 [Compound 254]	18.7
CCCCNc1nc(N)nc2cnn(Cc3ccc(CN4CCC5(CC4)CNC5)cc3OC)c12 [Compound 255]	5.7
CCCCNc1nc(N)nc2cnn(Cc3ccc(CN4CC5(CCNCC5)C4)cc3OC)c12 [Compound 256]	10.7
CCCCNc1nc(N)nc2cnn(Cc3ccc(CN4CC5(CCNC5)C4)cc3OC)c12 [Compound 257]	4.8
CCCCNc1nc(N)nc2cnn(Cc3ccc(CN4CCC5(CNC5)C4)cc3OC)c12 [Compound 258]	6.5
CCCCNc1nc(N)nc2cnn(Cc3ccc(CN4CCC5(CC4)CN(CCO)C5)cc3OC)c12 [Compound 259]	13.6
CCCCNc1nc(N)nc2cnn(Cc3ccc(CN4CC5(CCN(CCO)C5)C4)cc3OC)c12 [Compound 261]	8
CCCCNc1nc(N)nc2cnn(Cc3ccc(CN4CCC5(C4)CN(CCO)C5)cc3OC)c12 [Compound 262]	4.4
COc1cc(CN2CC3(C2)CN(C(C)C)C3)ccc1Cn1ncc2nc(N)nc(NCc3noc(C)n3)c21 [Compound 263]	12.7
COc1cc(CN2CC3(C2)CN(C(C)=O)C3)ccc1Cn1ncc2nc(N)nc(NCc3noc(C)n3)c21 [Compound 264]	78.2
CCCCNc1nc(N)nc2cnn(Cc3ccc(CN4CCC5(CCNC5)C4)cc3OC)c12 (stereo not drawn) [Compound 265]	33.1
CCCCNc1nc(N)nc2cnn(Cc3ccc(CN4CCC5(CCNCC5)CC4)cc3OC)c12 [Compound 266]	9.3
CCCCNc1nc(N)nc2cnn(Cc3ccc(CN4CCC5(CCN(CCO)C5)C4)cc3OC)c12 (stereo not drawn) [Compound 267]	1.3
CCC[C@@H](CCO)Nc1nc(N)nc2c(C)nn(Cc3ccc(CNC4CC5(C4)CN(C)C5)cc3OC)c12 [Compound 269]	3.7
CCC[C@@H](CCO)Nc1nc(N)nc2cnn(Cc3ncc(C4CC5(CCN(C6CCOCC6)CC5)C4)cc3OC)c12 [Compound 270]	0.2
CCC[C@@H](CCO)Nc1nc(N)nc2cnn(Cc3ncc(C4CCC5(CC4)CN(C4CCOCC4)C5)cc3OC)c12 [Compound 271]	0.6
